Experimental data taken from US20220117948A1, “TRITERPENOID ANTIFUNGALS FOR THE TREATMENT OF FUNGAL OSTEO-ARTICULAR INFECTIONS” (Scynexis, Inc., priority 2019, published 2022).
Starred links: 1 amine or outer side, 2 acyl side, 3 side chain; linkers in the order of their positions; H or OH if unused. Positions of bridges follow the written chain, without caps; N, C: chain ends. Non-standard residues stand in square brackets, D forms with d. Residues, ends and D or L forms follow the SMILES beside them. *: point of attachment. pTerphenylCO(4''-OnC5H11) = CCCCCOc1ccc(-c2ccc(-c3ccc(C(=O)*)cc3)cc2)cc1; Orn(4R-OH,5R-OH) = O=C([C@H](C[C@@H](O)[C@@H](O)N[*:3])N[*:1])[*:2]; hTyr(3S-OH,4S-OH) = N[C@H](C(=O)O)[C@H](O)[C@@H](O)c1ccc(O)cc1; Pro(3S-OH,4S-Me) = C[C@H]1CN[C@H](C(=O)O)[C@H]1O; Hyp = O=C(O)[C@@H]1C[C@@H](O)CN1

How the values were obtained:
[1] = tested on: Candida albicans spondylodiscitis; type: in vivo, human; conditions: Example A: person, Candida albicans spondylodiscitis L4/L5; oral 750 mg BID 2 days then 750 mg QD (citrate salt tablets); 277 days of treatment
From the text: (§1) This example presents treatment courses of two patients with Candida spondylodiscitis who were enrolled in an “Open-Label Study to Evaluate Efficacy and Safety of SCY-078 in Patients With Refractory or Intolerant Fungal Diseases (FURI)” (clinicaltrials.gov identifier NCT03059992).
(§2) Objective: The objective of the study is to evaluate the efficacy of orally administered SCY-078 for the treatment of fungal infections that are refractory to or intolerant of approved antifungal agents.
(§3) Study design: This is a multicenter, open-label, non-comparator, single-arm study to evaluate the efficacy, safety, and pharmacokinetics (PK) of SCY-078 (administered as the citrate salt) in male and female subjects≥18 years of age with documented invasive and/or severe candidiasis that has been refractory to or intolerant of, or has shown toxicities associated with standard of care (SoC) antifungal treatment. Subjects must have a documented eligible acute or chronic invasive candidiasis (including candidemia) and meet all study criteria to be considered for enrollment. […]
(§4) Efficacy: Efficacy will be assessed primarily in terms of global success (both clinical success and mycological success). Complete global response, partial global response, clinical success, and mycological success will also be assessed. […]

[2] = set-up: species or system male pigmented Long-Evans rats; conditions: rat, in vivo
Experimental: As a first step of the feasibility evaluation, the tissue distribution of SCY-078 was evaluated in an animal model. […] WH rats were used for mass balance and pharmacokinetic (PK) determinations after i.v. and oral doses, and both WH and LE rats were used for Quantitative whole-body autoradiography (QWBA) determinations. Dose levels were selected to reflect the clinically relevant 11.2-μg·h/ml target exposure for Candida spp. infections. The concentration, homogeneity, radio purity, and stability of dosing formulations were confirmed to be acceptable before dosing. For QWBA whole-body sections (˜40 μm thick via Leica CM3600 cryomicrotome; Nussloch, Germany), where all major tissues, organs, and biological fluids were represented, sections were exposed for phosphor imaging (Fuji Biomedical, Stamford, Conn.) together with calibration standards. […] Quantification was performed by image densitometry with MCID image analysis software (v. 7.0; Interfocus Imaging Ltd., Linton, Cambridge, UK), and a standard curve was constructed from the integrated response (molecular dynamics counts [MDC]/mm2) and the nominal concentrations of the 14C-calibration standards. The concentrations of radioactivity were expressed as [14C]SCY-078 μg equiv/g tissue. The lower limit of quantitation was 0.024 and 0.049 μg equiv/g of tissue for i.v. and oral doses of SCY-078, respectively. […]

[3] = tested on: Candida tropicalis spondylodiscitis; type: in vivo, human; conditions: Example B: person, Candida tropicalis spondylodiscitis L5/S1; oral 750 mg BID 2 days then 750 mg QD (citrate salt tablets); 88 days of treatment
From the text: as §1, §2, §3, §4

[4] = tested on: sessile (biofilm) forms of Candida and non-Candida isolates; conditions: XTT reduction assay, confirmed by scanning electron microscopy; cited from earlier work
[5] = tested on: Candida and non-Candida isolates causing fungaemia; conditions: 178 Candida and non-Candida isolates causing fungaemia; EUCAST E Def 7.3 and CLSI M27-A3; cited from earlier work
[6] = cited from earlier work
[7] = mice; cited from earlier work

SMILES: CC(C)[C@@H](C)[C@@]1(C)CC[C@]2(C)[C@H]3CC[C@@H]4[C@@]5(COC[C@@]4(C)[C@@H](OC[C@](C)(N)C(C)(C)C)[C@H](n4ncnc4-c4ccncc4)C5)C3=CC[C@@]2(C)[C@@H]1C(=O)O [SCY-078, (1S,4aR,6aS,7R,8R,10aR,10bR,12aR,14R,15R)-15-[[(2R)-2-amino-2,3,3-trimethylbutyl]oxy]-8-[(1R)-1,2-dimethylpropyl]-14-[5-(4-pyridinyl)-1H-1,2,4-triazol-1-yl]-1,6,6a,7,8,9,10,10a,10b,11,12,12a-dodecahydro-1,6a,8,10a-tetramethyl-4H-1,4a-propano-2H-phenanthro[1,2-c]pyran-7-carboxylic acid]
- patient's response to date [1]: improved
- exposure observed in bone compared with plasma [2]: exceeded the exposure measured in plasma
- exposure observed in bone marrow compared with plasma [2]: exceeded the exposure measured in plasma
- patient's response to date [3]: resolved
- antibiofilm activity [4]: activity against the biofilms
- in vitro activity against planktonic form [5]: potent in vitro activity

SMILES: CCCCCOc1ccc(-c2ccc(-c3ccc(C(=O)N[C@H]4C[C@@H](O)[C@@H](O)NC(=O)[C@@H]5[C@@H](O)[C@@H](C)CN5C(=O)[C@H]([C@@H](C)O)NC(=O)[C@H]([C@H](O)[C@@H](O)c5ccc(O)cc5)NC(=O)[C@@H]5C[C@@H](O)CN5C(=O)[C@H]([C@@H](C)O)NC4=O)cc3)cc2)cc1 [anidulafungin] ({pTerphenylCO(4''-OnC5H11)}-[Orn(4R-OH,5R-OH)]T[Hyp][hTyr(3S-OH,4S-OH)]T[Pro(3S-OH,4S-Me)]; lactam 1-C)
- bone/plasma concentration ratio ([6]; neonatal rats after a single dose): 0.21
- skeletal muscle concentrations compared with plasma ([6]; rats): comparable to those in plasma

SMILES: CC[C@H](C)C[C@H](C)CCCCCCCCC(=O)N[C@H]1C[C@@H](O)[C@@H](NCCN)NC(=O)[C@@H]2[C@@H](O)CCN2C(=O)[C@H]([C@H](O)CCN)NC(=O)[C@H]([C@H](O)[C@@H](O)c2ccc(O)cc2)NC(=O)[C@@H]2C[C@@H](O)CN2C(=O)[C@H]([C@@H](C)O)NC1=O [caspofungin]
- skeletal muscle concentrations as % of those in plasma [7]: less than 50%
